{"source": "patent US10676509B2", "about": "“Surface-immobilized antimicrobial peptoids” (Northwestern University, priority 2008, dated 2020)", "key": {"[1]": {"tested_on": "E. coli", "format": "cell-based, Escherichia coli (ATCC 35218)", "protocol": "(§1) The polymers were initially tested to determine their antibacterial properties in the solution state. Antibacterial activities of the compounds were tested using the methods described above for both Gram-negative and Gram-positive bacterial strains.\n(§2) The minimum inhibitory concentration (MIC) for each polymer was determined according to Clinical Laboratory Standards Institute (CLSI) broth microdilution protocols (M7-A6). The procedure explained previously was followed (Chongsiriwatana et al., supra); briefly, serial dilutions of the polymers were prepared in Mueller-Hinton broth (MHB) in 96-well microtiter plates and bacterial inoculum in MHB was added to each well (˜5.0×10^4 CFU/well). Optical density was monitored at 590 nm for 16 h at 35° C."}, "[2]": {"tested_on": "S. epidermidis", "format": "cell-based, Staphylococcus epidermidis RP62A (ATCC 12228)", "settings": "16 h", "protocol": "as §1, §2"}, "[3]": {"tested_on": "P. aeruginosa", "format": "cell-based, Pseudomonas aeruginosa (ATCC 700829)", "settings": "16 h", "protocol": "as §1, §2"}, "[4]": {"tested_on": "B. subtilis", "format": "cell-based, Bacillus subtilis (ATCC 6633)", "settings": "16 h", "protocol": "as §1, §2"}, "[5]": {"tested_on": "E. coli", "test": "Antibacterial activity on surfaces: bacterial adhesion and membrane permeation (FITC) on modified TiO2 slides", "format": "cell-based, Escherichia coli", "settings": "for E. coli attachment to modified TiO2: 2 h exposure, compared with bare TiO2; for Percent FITC-stained bacteria: compared among surfaces", "protocol": "Bacterial experiments on modified TiO2 slides were performed by exposing the surfaces to an E. coli suspension for two hours and then centrifuging to remove unattached and weakly attached bacteria. The bacteria remaining on the surfaces were imaged in phase contrast for determination of cell numbers, and in fluorescence after staining with FITC to detect cells with compromised membranes. From these images, total number of adherent bacteria (from phase contrast) and percent of attached cells with compromised membranes (from FITC staining) were determined and are shown in Table 3.\nE. coli were streaked from frozen stocks onto Mueller-Hinton agar and incubated overnight at 37° C. A few colonies were then used to inoculate 25 ml of sterile Mueller-Hinton broth (MHB) and grown overnight at 37° C. TiO2-coated glass slides were modified with the polymers using the previously described procedure. Two-well chambers were clamped to the slides and sealed by injecting silastic resin, which was allowed to cure overnight. Slides were sterilized by exposure to UV light for 10 minutes. The bacterial suspension was concentrated by centrifugation and resuspended in PBS at a concentration of 5×10^7 CFU/ml; 2 ml of the E. coli suspension was added to each slide chamber. Slide chambers were covered and placed in a humidified incubator at 37° C.; after 2 h, nonadherent bacteria were removed by inverted centrifugation for 2 min at 30 rcf in sealed bags filled with PBS (Jensen et al., 2004). […] Slides were rinsed with PBS and imaged by confocal microscopy equipped with an inverted microscope (Leica TCS SP2). Phase contrast and fluorescent (488-nm band-pass filter for excitation of FITC) images were taken at identical locations to determine bacterial cell count and percent stained with FITC. The microscopy images were quantified using thresholding in ImageJ, and averages with standard deviations for at least nine images from one slide are reported. While slides were prepared in duplicate or triplicate and consistency was qualitatively confirmed between experimental samples, the reported counts and images were obtained from a single slide for each condition."}, "[6]": {"tested_on": "E. coli, B. subtilis, S. epidermidis and P. aeruginosa", "test": "Antibacterial activity in solution (MIC), statements for all bacterial strains", "format": "cell-based", "settings": "for Antibacterial activity in solution: tested concentrations", "protocol": "as §1, §2"}}, "note": "Like-named read-outs stand apart in the source and are kept apart here. Starred links: 1 amine or outer side, 2 acyl side, 3 side chain; linkers in the order of their positions; H or OH if unused. Non-standard residues stand in square brackets, D forms with d. Residues, ends and D or L forms follow the SMILES beside them. N(1S-Me-propyl)Gly = CC[C@H](C)NCC(=O)O; Dopa = N[C@@H](Cc1ccc(O)c(O)c1)C(=O)O; X1 = O=C(CN(CC(F)(F)F)[*:1])[*:2]; Nspe = C[C@H](NCC(=O)O)c1ccccc1; Nlys = NCCCCNCC(=O)O; Nme = COCCNCC(=O)O", "data": [{"smiles": "C[C@@H](c1ccccc1)N(CC(N)=O)C(=O)CN(C(=O)CN(CCCCN)C(=O)CN(C(=O)CN(C(=O)CN(CCCCN)C(=O)[C@@H]1CCCN1C(=O)CN(C(=O)CN(CCCCN)C(=O)CN(C(=O)CN(C(=O)CNCCCCN)[C@@H](C)c1ccccc1)[C@@H](C)c1ccccc1)[C@@H](C)c1ccccc1)[C@@H](C)c1ccccc1)[C@@H](C)c1ccccc1)[C@@H](C)c1ccccc1", "note": "[AMP, H-NLys-Nspe-Nspe-NLys-Nspe-Pro-[NLys-Nspe-Nspe]2—NH2] (H-[Nlys][Nspe][Nspe][Nlys][Nspe]P[Nlys][Nspe][Nspe][Nlys][Nspe][Nspe]-NH2)", "values": [{"measurement": "MIC E. coli", "setting": "[1]; solution, MHB, 16 h at 35° C.", "value": 12.5, "unit": "µM"}, {"measurement": "MIC S. epidermidis", "setting": "[2]", "value": 1.6, "unit": "µM"}, {"measurement": "MIC P. aeruginosa", "setting": "[3]", "value": 25, "unit": "µM"}, {"measurement": "MIC B. subtilis", "setting": "[4]", "value": 1.6, "unit": "µM"}]}, {"smiles": "COCCN(CC(=O)N(CCOC)CC(=O)N(CCOC)CC(=O)N(CCOC)CC(=O)N(CCOC)CC(=O)N(CCOC)CC(=O)N(CCOC)CC(=O)N(CCOC)CC(=O)N(CCOC)CC(=O)N(CCOC)CC(=O)N(CC(=O)N[C@@H](Cc1ccc(O)c(O)c1)C(=O)N[C@@H](CCCCN)C(=O)N[C@@H](Cc1ccc(O)c(O)c1)C(=O)N[C@@H](CCCCN)C(=O)N[C@@H](Cc1ccc(O)c(O)c1)C(N)=O)CC(F)(F)F)C(=O)CN(CCOC)C(=O)CN(CCOC)C(=O)CN(CCOC)C(=O)CN(CCOC)C(=O)CN(CCOC)C(=O)CN(CCOC)C(=O)CN(CCOC)C(=O)CN(CCOC)C(=O)CN(CCOC)C(=O)CN(CCOC)C(=O)CN(C(=O)CN(C(=O)CN(CCCCN)C(=O)CN(C(=O)CN(C(=O)CN(CCCCN)C(=O)[C@@H]1CCCN1C(=O)CN(C(=O)CN(CCCCN)C(=O)CN(C(=O)CN(C(=O)CNCCCCN)[C@@H](C)c1ccccc1)[C@@H](C)c1ccccc1)[C@@H](C)c1ccccc1)[C@@H](C)c1ccccc1)[C@@H](C)c1ccccc1)[C@@H](C)c1ccccc1)[C@@H](C)c1ccccc1", "note": "[PMP1-AMP] (H-[Nlys][Nspe][Nspe][Nlys][Nspe]P[Nlys][Nspe][Nspe][Nlys][Nspe][Nspe][Nme][Nme][Nme][Nme][Nme][Nme][Nme][Nme][Nme][Nme][Nme][Nme][Nme][Nme][Nme][Nme][Nme][Nme][Nme][Nme][X1][Dopa]K[Dopa]K[Dopa]-NH2)", "values": [{"measurement": "MIC E. coli", "setting": "[1]; 16 h", "value": 50, "unit": "µM"}, {"measurement": "MIC S. epidermidis", "setting": "[2]", "value": 3.1, "unit": "µM"}, {"measurement": "E. coli attachment to modified TiO2", "setting": "[5]", "value": "comparable to bare TiO2 surfaces"}, {"measurement": "Total number of FITC-stained bacteria relative to PMP110 surfaces", "setting": "[5]; adhered E. coli, 2 h", "value": "more than ten times greater"}, {"measurement": "Percent FITC-stained bacteria", "setting": "[5]; adhered E. coli", "value": "highest percentage of bacterial cells with compromised membranes"}, {"measurement": "MIC P. aeruginosa", "setting": "[3]", "value": 200, "unit": "µM"}, {"measurement": "MIC relative to AMP alone (times greater)", "setting": "[6]", "value": "2-4 times"}, {"measurement": "Antibacterial activity in solution", "setting": "[6]", "value": "active against all bacterial strains"}, {"measurement": "MIC B. subtilis", "setting": "[4]", "value": 3.1, "unit": "µM"}]}, {"smiles": "CC[C@H](C)N(CC(=O)N(CCCCN)CC(=O)N(CC(=O)N(CC(=O)N(CCCCN)CC(=O)N(CC(=O)N(CC(=O)N(CCCCN)CC(=O)N(CC(=O)N(CC(=O)N(CCOC)CC(=O)N(CCOC)CC(=O)N(CCOC)CC(=O)N(CCOC)CC(=O)N(CCOC)CC(=O)N(CCOC)CC(=O)N(CCOC)CC(=O)N(CCOC)CC(=O)N(CCOC)CC(=O)N(CCOC)CC(=O)N(CCOC)CC(=O)N(CCOC)CC(=O)N(CCOC)CC(=O)N(CCOC)CC(=O)N(CCOC)CC(=O)N(CCOC)CC(=O)N(CCOC)CC(=O)N(CCOC)CC(=O)N(CCOC)CC(=O)N(CCOC)CC(=O)N(CC(=O)N[C@@H](Cc1ccc(O)c(O)c1)C(=O)N[C@@H](CCCCN)C(=O)N[C@@H](Cc1ccc(O)c(O)c1)C(=O)N[C@@H](CCCCN)C(=O)N[C@@H](Cc1ccc(O)c(O)c1)C(N)=O)CC(F)(F)F)[C@@H](C)CC)[C@@H](C)CC)[C@@H](C)CC)[C@@H](C)CC)[C@@H](C)CC)[C@@H](C)CC)C(=O)CN(C(=O)CNCCCCN)[C@@H](C)CC", "note": "[PMP1-C, reference compound] (H-[Nlys][N(1S-Me-propyl)Gly][N(1S-Me-propyl)Gly][Nlys][N(1S-Me-propyl)Gly][N(1S-Me-propyl)Gly][Nlys][N(1S-Me-propyl)Gly][N(1S-Me-propyl)Gly][Nlys][N(1S-Me-propyl)Gly][N(1S-Me-propyl)Gly][Nme][Nme][Nme][Nme][Nme][Nme][Nme][Nme][Nme][Nme][Nme][Nme][Nme][Nme][Nme][Nme][Nme][Nme][Nme][Nme][X1][Dopa]K[Dopa]K[Dopa]-NH2)", "values": [{"measurement": "MIC E. coli", "setting": "[1]; 16 h", "value": ">100", "unit": "µM"}, {"measurement": "MIC S. epidermidis", "setting": "[2]", "value": ">100", "unit": "µM"}, {"measurement": "E. coli attachment to modified TiO2", "setting": "[5]", "value": "much higher than PMP1-AMP and TiO2 surfaces"}, {"measurement": "Percent FITC-stained bacteria", "setting": "[5]; adhered E. coli", "value": "low and comparable to the control TiO2 substrates"}, {"measurement": "MIC P. aeruginosa", "setting": "[3]", "value": ">100", "unit": "µM"}, {"measurement": "Antibacterial activity in solution", "setting": "[6]", "value": "not active at the tested concentrations"}, {"measurement": "MIC B. subtilis", "setting": "[4]", "value": ">100", "unit": "µM"}]}, {"smiles": "CC[C@H](C)N(CC(N)=O)C(=O)CN(C(=O)CN(CCCCN)C(=O)CN(C(=O)CN(C(=O)CN(CCCCN)C(=O)CN(C(=O)CN(C(=O)CN(CCCCN)C(=O)CN(C(=O)CN(C(=O)CNCCCCN)[C@@H](C)CC)[C@@H](C)CC)[C@@H](C)CC)[C@@H](C)CC)[C@@H](C)CC)[C@@H](C)CC)[C@@H](C)CC", "note": "[Peptoid C, H-[NLys-Nssb-Nssb]4-NH2, reference compound] (H-[Nlys][N(1S-Me-propyl)Gly][N(1S-Me-propyl)Gly][Nlys][N(1S-Me-propyl)Gly][N(1S-Me-propyl)Gly][Nlys][N(1S-Me-propyl)Gly][N(1S-Me-propyl)Gly][Nlys][N(1S-Me-propyl)Gly][N(1S-Me-propyl)Gly]-NH2)", "values": [{"measurement": "MIC E. coli", "setting": "[1]; 16 h", "value": ">100", "unit": "µM"}, {"measurement": "MIC S. epidermidis", "setting": "[2]", "value": ">100", "unit": "µM"}, {"measurement": "MIC P. aeruginosa", "setting": "[3]", "value": ">100", "unit": "µM"}, {"measurement": "Antibacterial activity in solution", "setting": "[6]", "value": "not active at the tested concentrations"}, {"measurement": "MIC B. subtilis", "setting": "[4]", "value": ">100", "unit": "µM"}]}]}
